Values quoted from earlier work as cited in US20060247361A1, “Polar functionalized polymer modified porous substrate for solid phase extraction” (priority 2005, published 2006).
Structures can show the parent of a compound that is named as a salt.

| Structure (SMILES) | Log P |
| --- | --- |
| CN(C)CCC(c1ccc(Br)cc1)c1ccccn1 (stereo not shown) [Brompheniramine] | 3.89 |
| CN(C)CCC(c1ccc(Cl)cc1)c1ccccn1 (stereo not shown) [Chlorpheniramine maleate] | 3.38 |
| CN1CCN2c3ccccc3Cc3ccccc3C2C1 (stereo not shown) [Mianserin] | 3.85 |
| NCCC(Oc1ccc(C(F)(F)F)cc1)c1ccccc1 (stereo not shown) [Norfluoxetine] | 3.75 |
| CNCCC=C1c2ccccc2CCc2ccccc21 [Nortriptyline] | 4.74 |
| CC(C)(C)NCC(O)c1ccc(O)c(CO)c1 (stereo not shown) [Salbutamol] | 0.97 |
| CC(C)(C)NC[C@H](O)COc1nsnc1N1CCOCC1 [Timolol maleate] | 1.83 |
